From ChEMBL document CHEMBL4321785, “Challenges and Opportunities for Therapeutics Targeting the Voltage-Gated Sodium Channel Isoform NaV1.7” (J Med Chem, 2019)
pIC50, pKd: −log10 of the molar value.

Legend:
[1] = biological target: T1, Sodium channel protein type 4 subunit alpha (Homo sapiens, UniProt P35499); assay: Inhibition of human Nav1.4 expressed in HEK293 cells by electrophysiology assay; type: cell-based
[2] = biological target: T2, Sodium channel protein type 2 subunit alpha (Homo sapiens, UniProt Q99250); assay: Inhibition of human Nav1.2 expressed in HEK293 cells by electrophysiology assay; type: cell-based
T2 sequence (Q99250 whole entry): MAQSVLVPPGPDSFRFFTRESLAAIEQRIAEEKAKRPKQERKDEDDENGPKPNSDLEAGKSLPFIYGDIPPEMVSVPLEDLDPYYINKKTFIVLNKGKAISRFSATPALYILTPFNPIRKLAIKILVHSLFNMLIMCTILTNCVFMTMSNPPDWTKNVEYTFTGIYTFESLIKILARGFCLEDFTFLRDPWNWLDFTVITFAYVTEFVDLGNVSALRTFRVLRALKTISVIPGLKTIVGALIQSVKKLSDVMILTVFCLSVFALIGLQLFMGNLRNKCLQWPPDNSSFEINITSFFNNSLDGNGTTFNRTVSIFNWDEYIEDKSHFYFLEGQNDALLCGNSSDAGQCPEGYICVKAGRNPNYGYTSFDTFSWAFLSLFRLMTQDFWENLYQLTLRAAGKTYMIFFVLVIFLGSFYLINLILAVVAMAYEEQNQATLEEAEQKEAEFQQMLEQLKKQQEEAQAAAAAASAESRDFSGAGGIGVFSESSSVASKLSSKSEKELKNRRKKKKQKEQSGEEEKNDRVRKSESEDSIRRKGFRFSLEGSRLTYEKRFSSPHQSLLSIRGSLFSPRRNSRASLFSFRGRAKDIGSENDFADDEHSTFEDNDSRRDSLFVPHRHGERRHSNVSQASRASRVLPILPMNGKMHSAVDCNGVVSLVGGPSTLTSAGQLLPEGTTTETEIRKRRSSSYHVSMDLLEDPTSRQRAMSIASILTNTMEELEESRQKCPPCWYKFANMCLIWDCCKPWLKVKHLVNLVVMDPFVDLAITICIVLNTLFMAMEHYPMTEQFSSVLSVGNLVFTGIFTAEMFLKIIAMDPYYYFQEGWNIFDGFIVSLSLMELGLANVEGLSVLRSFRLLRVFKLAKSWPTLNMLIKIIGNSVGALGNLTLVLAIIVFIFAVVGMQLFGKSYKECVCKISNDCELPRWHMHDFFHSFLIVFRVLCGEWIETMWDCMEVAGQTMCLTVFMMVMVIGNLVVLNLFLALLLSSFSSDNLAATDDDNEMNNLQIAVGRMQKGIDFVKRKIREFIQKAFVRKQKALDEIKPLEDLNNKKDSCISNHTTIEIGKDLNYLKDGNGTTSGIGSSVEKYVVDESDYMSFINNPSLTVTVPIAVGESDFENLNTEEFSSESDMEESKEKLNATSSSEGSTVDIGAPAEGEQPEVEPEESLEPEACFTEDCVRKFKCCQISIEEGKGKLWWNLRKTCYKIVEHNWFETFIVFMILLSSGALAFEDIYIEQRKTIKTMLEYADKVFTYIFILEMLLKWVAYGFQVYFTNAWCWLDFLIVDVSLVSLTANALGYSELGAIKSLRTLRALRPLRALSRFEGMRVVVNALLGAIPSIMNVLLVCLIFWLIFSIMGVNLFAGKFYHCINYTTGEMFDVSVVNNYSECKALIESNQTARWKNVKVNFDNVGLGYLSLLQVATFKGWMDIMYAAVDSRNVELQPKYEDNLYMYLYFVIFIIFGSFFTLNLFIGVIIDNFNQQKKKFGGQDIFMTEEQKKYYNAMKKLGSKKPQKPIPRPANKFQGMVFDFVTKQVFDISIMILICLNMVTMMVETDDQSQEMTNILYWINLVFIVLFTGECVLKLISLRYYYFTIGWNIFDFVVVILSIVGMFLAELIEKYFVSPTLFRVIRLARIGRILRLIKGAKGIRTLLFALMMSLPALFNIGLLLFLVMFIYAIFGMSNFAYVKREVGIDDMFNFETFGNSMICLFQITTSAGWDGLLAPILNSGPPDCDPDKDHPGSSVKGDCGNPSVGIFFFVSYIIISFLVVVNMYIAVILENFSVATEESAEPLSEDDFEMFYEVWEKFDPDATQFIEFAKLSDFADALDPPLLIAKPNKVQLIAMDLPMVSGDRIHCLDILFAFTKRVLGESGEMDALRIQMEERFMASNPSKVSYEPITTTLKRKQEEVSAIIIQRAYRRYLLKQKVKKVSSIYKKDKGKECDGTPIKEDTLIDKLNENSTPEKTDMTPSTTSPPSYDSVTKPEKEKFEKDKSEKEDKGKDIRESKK

[3] = biological target: T3, Sodium channel protein type 3 subunit alpha (Homo sapiens, UniProt Q9NY46); assay: Inhibition of human Nav1.3 expressed in HEK293 cells by electrophysiology assay; type: cell-based
Rattus norvegicus [4] = assay: Analgesic activity in it dosed rat model of formalin-induced pain; type: functional
[5] = biological target: T4, Sodium channel protein type 1 subunit alpha (Homo sapiens, UniProt P35498); assay: Inhibition of human Nav1.1 expressed in HEK293 cells by electrophysiology assay; type: cell-based
Rattus norvegicus [6] = assay: Analgesic activity in it dosed rat model of CFA-induced pain by Hargreaves test; type: functional
[7] = biological target: T5, Sodium channel protein type 8 subunit alpha (Homo sapiens, UniProt Q9UQD0); assay: Inhibition of human Nav1.6 expressed in HEK293 cells by electrophysiology assay; type: cell-based
Rattus norvegicus [8] = assay: Analgesic activity in iv dosed rat model of CFA-induced pain; type: functional
Rattus norvegicus [9] = assay: Analgesic activity in it dosed rat model of CFA-induced pain; type: functional
[10] = biological target: T6, Sodium channel protein type 5 subunit alpha (Homo sapiens, UniProt Q14524); assay: Inhibition of human Nav1.5 expressed in HEK293 cells by electrophysiology assay; type: cell-based
T6 sequence (Q14524 whole entry): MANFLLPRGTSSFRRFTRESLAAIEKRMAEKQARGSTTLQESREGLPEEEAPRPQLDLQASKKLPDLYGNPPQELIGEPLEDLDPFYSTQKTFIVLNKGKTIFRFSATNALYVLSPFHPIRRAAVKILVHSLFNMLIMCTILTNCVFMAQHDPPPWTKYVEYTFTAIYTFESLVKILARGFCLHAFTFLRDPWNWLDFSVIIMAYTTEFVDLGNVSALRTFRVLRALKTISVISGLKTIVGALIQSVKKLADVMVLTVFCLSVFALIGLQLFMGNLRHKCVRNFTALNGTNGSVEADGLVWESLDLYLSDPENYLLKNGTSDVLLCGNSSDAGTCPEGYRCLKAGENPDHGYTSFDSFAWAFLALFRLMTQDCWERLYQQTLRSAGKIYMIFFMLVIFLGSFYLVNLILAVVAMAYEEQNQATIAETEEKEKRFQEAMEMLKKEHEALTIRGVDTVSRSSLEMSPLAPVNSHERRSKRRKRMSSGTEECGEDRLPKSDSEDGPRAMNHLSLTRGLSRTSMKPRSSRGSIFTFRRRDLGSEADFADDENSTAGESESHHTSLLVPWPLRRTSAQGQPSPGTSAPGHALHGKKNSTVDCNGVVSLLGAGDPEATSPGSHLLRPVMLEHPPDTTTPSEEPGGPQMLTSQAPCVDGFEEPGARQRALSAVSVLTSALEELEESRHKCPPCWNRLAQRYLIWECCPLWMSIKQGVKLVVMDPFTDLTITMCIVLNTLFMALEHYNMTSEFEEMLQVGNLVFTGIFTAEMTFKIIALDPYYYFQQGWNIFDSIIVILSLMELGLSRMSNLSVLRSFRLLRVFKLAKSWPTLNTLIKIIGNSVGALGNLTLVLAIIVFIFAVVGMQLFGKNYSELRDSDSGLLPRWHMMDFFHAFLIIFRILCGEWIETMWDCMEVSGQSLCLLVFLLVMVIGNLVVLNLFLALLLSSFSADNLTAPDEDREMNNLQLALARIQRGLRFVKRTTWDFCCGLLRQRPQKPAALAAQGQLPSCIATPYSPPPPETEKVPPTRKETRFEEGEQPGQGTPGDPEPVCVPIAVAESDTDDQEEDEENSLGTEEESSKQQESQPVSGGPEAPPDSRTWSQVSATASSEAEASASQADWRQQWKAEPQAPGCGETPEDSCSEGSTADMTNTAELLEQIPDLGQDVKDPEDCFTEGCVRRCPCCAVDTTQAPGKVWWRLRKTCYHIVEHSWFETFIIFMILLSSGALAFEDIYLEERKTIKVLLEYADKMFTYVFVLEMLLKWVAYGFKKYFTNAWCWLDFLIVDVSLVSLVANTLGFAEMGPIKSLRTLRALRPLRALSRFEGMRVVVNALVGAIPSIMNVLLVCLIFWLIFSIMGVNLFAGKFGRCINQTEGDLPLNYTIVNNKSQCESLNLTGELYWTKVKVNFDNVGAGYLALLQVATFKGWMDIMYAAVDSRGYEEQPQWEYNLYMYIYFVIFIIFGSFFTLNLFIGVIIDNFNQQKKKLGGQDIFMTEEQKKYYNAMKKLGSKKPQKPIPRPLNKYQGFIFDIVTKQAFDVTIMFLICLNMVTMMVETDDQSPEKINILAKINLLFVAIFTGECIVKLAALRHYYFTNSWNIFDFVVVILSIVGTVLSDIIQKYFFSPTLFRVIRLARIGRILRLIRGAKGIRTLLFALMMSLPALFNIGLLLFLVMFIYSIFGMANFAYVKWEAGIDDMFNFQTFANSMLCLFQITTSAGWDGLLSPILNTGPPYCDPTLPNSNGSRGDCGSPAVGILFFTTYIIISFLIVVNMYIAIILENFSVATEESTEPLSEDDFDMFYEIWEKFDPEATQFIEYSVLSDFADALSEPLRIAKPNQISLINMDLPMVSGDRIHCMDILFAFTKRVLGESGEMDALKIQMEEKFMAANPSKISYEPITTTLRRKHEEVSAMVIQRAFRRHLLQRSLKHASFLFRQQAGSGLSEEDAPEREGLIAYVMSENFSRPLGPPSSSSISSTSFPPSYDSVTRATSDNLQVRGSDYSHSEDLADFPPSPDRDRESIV

[11] = Plasma concentration in mouse model of pain at 60 mg/kg, po during Randall-Selitto test; type: ADME, organism-based; settings: in vivo
Homo sapiens [12] = organism: Homo sapiens; assay: Selectivity ratio of Kd for binding affinity to human recombinant Nav1.4 by radioligand binding assay to Kd for binding affinity to human recombinant Nav1.7 by radioligand binding assay
[13] = Ratio of plasma concentration in mouse model of pain at 60 mg/kg, po during Randall-Selitto test to IC50 for inhibition of mouse Nav1.7 expressed in HEK293 cells by electrophysiology assay; type: organism-based; settings: in vivo
[14] = biological target: T4, Sodium channel protein type 1 subunit alpha; assay: Binding affinity to human recombinant Nav1.1 by radioligand binding assay
Homo sapiens [15] = organism: Homo sapiens; assay: Selectivity ratio of Kd for binding affinity to human recombinant Nav1.6 by radioligand binding assay to Kd for binding affinity to human recombinant Nav1.7 by radioligand binding assay
[16] = Ratio of plasma concentration in mouse model of capsaicin-induced pain at 60 mg/kg, po during von Frey test to IC50 for inhibition of mouse Nav1.7 expressed in HEK293 cells by electrophysiology assay; type: organism-based; settings: in vivo
[17] = biological target: T1, Sodium channel protein type 4 subunit alpha; assay: Binding affinity to human recombinant Nav1.4 by radioligand binding assay
[18] = Ratio of unbound plasma concentration in mouse model of inherited erythromelalgia to Kd for binding affinity to recombinant human Nav1.7 by radioligand binding assay; type: ADME; settings: in vivo
[19] = Plasma concentration in mouse model of capsaicin-induced pain at 60 mg/kg, po during von Frey test; type: ADME, organism-based; settings: in vivo
Homo sapiens [20] = organism: Homo sapiens; assay: Selectivity ratio of Kd for binding affinity to human recombinant Nav1.1 by radioligand binding assay to Kd for binding affinity to human recombinant Nav1.7 by radioligand binding assay
[21] = Ratio of plasma concentration in mouse model of pain at 60 mg/kg, po during hot plate test to IC50 for inhibition of mouse Nav1.7 expressed in HEK293 cells by electrophysiology assay; type: organism-based; settings: in vivo
[22] = Unbound fraction in mouse plasma; type: ADME, cell-free
[23] = Plasma concentration in mouse model of pain at 60 mg/kg, po during tail immersion test; type: ADME, organism-based; settings: in vivo
[24] = Plasma concentration in mouse model of pain at 60 mg/kg, po during hot plate test; type: ADME, organism-based; settings: in vivo
[25] = biological target: T3, Sodium channel protein type 3 subunit alpha; assay: Binding affinity to human recombinant Nav1.3 by radioligand binding assay
[26] = Ratio of plasma concentration in mouse model of CFA-induced pain at 60 mg/kg, po during Hargreaves test to IC50 for inhibition of mouse Nav1.7 expressed in HEK293 cells by electrophysiology assay; type: organism-based; settings: in vivo
[27] = biological target: T2, Sodium channel protein type 2 subunit alpha; assay: Binding affinity to human recombinant Nav1.2 by radioligand binding assay
[28] = biological target: T5, Sodium channel protein type 8 subunit alpha; assay: Binding affinity to human recombinant Nav1.6 by radioligand binding assay
[29] = Plasma concentration in mouse model of CFA-induced pain at 60 mg/kg, po during Hargreaves test; type: ADME, organism-based; settings: in vivo
Homo sapiens [30] = organism: Homo sapiens; assay: Selectivity ratio of Kd for binding affinity to human recombinant Nav1.3 by radioligand binding assay to Kd for binding affinity to human recombinant Nav1.7 by radioligand binding assay
Homo sapiens [31] = organism: Homo sapiens; assay: Selectivity ratio of Kd for binding affinity to human recombinant Nav1.5 by radioligand binding assay to Kd for binding affinity to human recombinant Nav1.7 by radioligand binding assay
[32] = Ratio of unbound plasma concentration in mouse model of CFA-induced cold allodynia to Kd for binding affinity to mouse Nav1.7 by radioligand binding assay; type: ADME; settings: in vivo
[33] = Ratio of plasma concentration in mouse model of pain at 60 mg/kg, po during tail immersion test to IC50 for inhibition of mouse Nav1.7 expressed in HEK293 cells by electrophysiology assay; type: organism-based; settings: in vivo
[34] = biological target: T6, Sodium channel protein type 5 subunit alpha; assay: Binding affinity to human recombinant Nav1.5 by radioligand binding assay
[35] = Ratio of unbound plasma concentration in mouse model of STZ-induced pain measured on day 1 to Kd for binding affinity to mouse Nav1.7 by radioligand binding assay; type: ADME; settings: in vivo
[36] = Ratio of unbound plasma concentration in mouse model of SNI-induced pain to Kd for binding affinity to mouse Nav1.7 by radioligand binding assay; type: ADME; settings: in vivo
[37] = Ratio of unbound plasma concentration in mouse model of formalin-induced pain to Kd for binding affinity to mouse Nav1.7 by radioligand binding assay; type: ADME; settings: in vivo
[38] = biological target: Sodium channel protein type 9 subunit alpha (Mus musculus, UniProt Q62205); assay: Binding affinity to mouse Nav1.7 by radioligand binding assay
[39] = biological target: Sodium channel protein type 10 subunit alpha (Mus musculus, UniProt Q6QIY3); assay: Binding affinity to mouse Nav1.8 […] by radioligand binding assay
Homo sapiens [40] = organism: Homo sapiens; assay: Selectivity ratio of Kd for binding affinity to human recombinant Nav1.2 by radioligand binding assay to Kd for binding affinity to human recombinant Nav1.7 by radioligand binding assay

CSCC[C@@H]1NC(=O)CNC(=O)[C@H](CCC(=O)O)NC(=O)[C@@H]2CSSC[C@H](NC(=O)[C@@H](N)Cc3ccc(O)cc3)C(=O)N[C@@H](CCC(N)=O)C(=O)N[C@@H](CCCCN)C(=O)N[C@@H](Cc3c[nH]c4ccccc34)C(=O)N[C@@H](CCSC)C(=O)N[C@@H](Cc3c[nH]c4ccccc34)C(=O)N[C@@H]([C@@H](C)O)C(=O)N[C@H]3CSSC[C@H](NC(=O)[C@H](C(C)C)NC1=O)C(=O)N[C@@H](CCCNC(=N)N)C(=O)N[C@@H](CC(C)C)C(=O)N[C@@H](Cc1c[nH]c4ccccc14)C(=O)N[C@H](C(=O)N[C@@H](CCCCN)C(=O)N[C@@H](CCCCN)C(=O)N[C@@H](CCCCN)C(=O)N[C@@H](CC(C)C)C(=O)N[C@@H](Cc1c[nH]c4ccccc14)C(=O)O)CSSC[C@H](NC(=O)[C@H](CCCCN)NC(=O)[C@H](CCCNC(=N)N)NC(=O)[C@H](CCC(=O)O)NC(=O)[C@H](CO)NC(=O)[C@H](CC(=O)O)NC3=O)C(=O)N2 showed a pIC50 [1] of 7.10, a pIC50 [2] of 7.10 and a pIC50 [3] of 7.60. The ED (Rattus norvegicus [4]) was 2 µg, the pIC50 [5] was 7.80 and the ED (Rattus norvegicus [6]) was 2 µg. It also gave a pIC50 [7] of 7.49, an ED (Rattus norvegicus [8]) of 0.1 mg/kg and an ED (Rattus norvegicus [9]) of 0.01 mg/kg. It also gave a pIC50 [10] of 6.40.

Cc1nn([C@@H]2CCN([C@H](C)c3cc(Cl)cc(Cl)c3)C2)c2cc(F)c(C(=O)NS(=O)(=O)C3CC3)cc12 showed a concentration [11] of 49.3 µM, a Ratio Ki (Homo sapiens [12]) of 2.1 and a Ratio [13] of 25. It also gave a pKd [14] of 6.85, a Ratio Ki (Homo sapiens [15]) of 28 and a Ratio [16] of 16. The pKd [17] was 7.33, the Ratio [18] was 2.3 and the concentration [19] was 31.1 µM. It also gave a Ratio Ki (Homo sapiens [20]) of 6.4, a Ratio [21] of 25 and a fraction unbound [22] of 0.007. It also gave a concentration [23] of 49.3 µM, a concentration [24] of 49.3 µM and a pKd [25] of 6.96. It also gave a Ratio [26] of 34, a pKd [27] of 6.85 and a pKd [28] of 6.21. It also gave a concentration [29] of 67.9 µM, a Ratio Ki (Homo sapiens [30]) of 5 and a Ratio Ki (Homo sapiens [31]) of 21. The Ratio [32] was 6.2, the Ratio [33] was 25 and the pKd [34] was 6.34. It also gave a Ratio [35] of 5, a Ratio [36] of 5.7 and a Ratio [37] of 3.3. It also gave a pKd [38] of 7.85, a pKd [39] of 4.66 and a Ratio Ki (Homo sapiens [40]) of 6.4.
